Reference: ChEMBL document CHEMBL1201862, “PubChem BioAssay data set” (2004)
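48-hour exposure; five concentrations; linearly interpolated endpoints. GI50 is the concentration that inhibits growth by half.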 Active and inactive are the calls of the source. Cut-off read from the data, not from the text of the source: active = GI50 up to about 1.1 µM and inactive = higher.

Legend:
Experiment in all cases: NCI anticancer screen, dose series, 48 h
TK-10 = test system: TK-10
SF-295 = test system: SF-295
SF-539 = test system: SF-539
OVCAR-5 = test system: OVCAR-5
NCI-H226 = test system: NCI-H226
M14 = test system: M14
Malme-3M = test system: Malme-3M
NCI/ADR-RES = test system: NCI/ADR-RES
MDA-MB-435 = test system: MDA-MB-435
ACHN = test system: ACHN
DU-145 = test system: DU-145
EKVX = test system: EKVX
IGROV-1 = test system: IGROV-1
HCT-116 = test system: HCT-116
OVCAR-4 = test system: OVCAR-4
CCRF-CEM = test system: CCRF-CEM
MDA-N = test system: MDA-N
A498 = test system: A498
K562 = test system: K562

SMILES | GI50 (TK-10) | GI50 (SF-295) | GI50 (SF-539) | GI50 (OVCAR-5) | GI50 (NCI-H226) | GI50 (M14) | GI50 (Malme-3M) | GI50 (NCI/ADR-RES) | GI50 (MDA-MB-435) | GI50 (ACHN) | GI50 (DU-145) | GI50 (EKVX) | GI50 (IGROV-1) | GI50 (HCT-116) | GI50 (OVCAR-4) | GI50 (CCRF-CEM) | GI50 (MDA-N) | GI50 (A498) | GI50 (K562)
Cc1ccc(/C(=C/C=C(C#N)C#N)Sc2cc(Cl)ccc2Cl)cc1 | 2.92 µM (inactive) | 3.43 µM (inactive) | 3.18 µM (inactive) | 5.02 µM (inactive) | 3.02 µM (inactive) | 4.48 µM (inactive) | 16.9 µM (inactive) | 2.42 µM (inactive) | 2.43 µM (inactive) | 2.7 µM (inactive) | 3.4 µM (inactive) | 14 µM (inactive) | 8.41 µM (inactive) | 0.83 µM (active) | 6.31 µM (inactive) | – | – | – | –
COC(=O)c1cncc2c1CC1C3(C(=O)OC)C=NC(C4C(CO)=CCC43)C21C (stereo not drawn) | > 100 µM (inactive) | > 100 µM (inactive) | > 100 µM (inactive) | > 100 µM (inactive) | > 100 µM (inactive) | > 100 µM (inactive) | > 100 µM (inactive) | > 100 µM (inactive) | > 100 µM (inactive) | > 100 µM (inactive) | > 100 µM (inactive) | > 100 µM (inactive) | > 100 µM (inactive) | > 100 µM (inactive) | > 100 µM (inactive) | > 100 µM (inactive) | > 100 µM (inactive) | > 100 µM (inactive) | –
O=C1/C(=C/c2ccccc2)N=C(c2ccccc2)N1C1Nc2cc3c(cc2S1)NC(N1C(=O)/C(=C/c2ccccc2)N=C1c1ccccc1)S3 (stereo not drawn) | 30.5 µM (inactive) | > 100 µM (inactive) | > 100 µM (inactive) | 64 µM (inactive) | 44.5 µM (inactive) | 9.51 µM (inactive) | – | 44.6 µM (inactive) | 13.6 µM (inactive) | 29.5 µM (inactive) | 46.6 µM (inactive) | 95.7 µM (inactive) | 6.98 µM (inactive) | 32.5 µM (inactive) | 51.1 µM (inactive) | 31.7 µM (inactive) | 8.61 µM (inactive) | 16.9 µM (inactive) | 10 µM (inactive)
CC(C)(c1ccc(Oc2ccc(C#N)c(C#N)c2)cc1)c1ccc(Oc2ccc(C#N)c(C#N)c2)cc1 | > 10 µM (inactive) | > 10 µM (inactive) | > 10 µM (inactive) | > 10 µM (inactive) | > 10 µM (inactive) | > 10 µM (inactive) | > 10 µM (inactive) | – | – | > 10 µM (inactive) | – | > 10 µM (inactive) | > 10 µM (inactive) | > 10 µM (inactive) | > 10 µM (inactive) | > 10 µM (inactive) | – | > 10 µM (inactive) | > 10 µM (inactive)
COc1cc([C@@H]2c3cc4c(cc3[C@@H](NC(=O)c3cccc(C#N)c3)C3COC(=O)[C@@H]32)OCO4)cc(OC)c1O (stereo partly drawn) | 3.29 µM (inactive) | 0.372 µM (active) | 0.141 µM (active) | 1.1 µM (active) | 0.0671 µM (active) | 1.11 µM (active) | 0.65 µM (active) | – | – | 0.182 µM (active) | – | 1.36 µM (inactive) | 1.05 µM (active) | 1.1 µM (active) | 16.7 µM (inactive) | 0.0841 µM (active) | – | 1.26 µM (inactive) | 1.73 µM (inactive)
COc1cc2c(c(O)c1C)C(=O)CC(c1ccccc1)O2 (stereo not drawn) | 32.2 µM (inactive) | > 10 µM (inactive) | > 100 µM (inactive) | 39.1 µM (inactive) | 18.4 µM (inactive) | > 10 µM (inactive) | 91.4 µM (inactive) | – | – | 43.7 µM (inactive) | – | 89.3 µM (inactive) | 61.9 µM (inactive) | 31.7 µM (inactive) | > 10 µM (inactive) | > 10 µM (inactive) | – | 64.1 µM (inactive) | 50.2 µM (inactive)
CC(C)(C)c1cc([Si](C)(C)C)c(C#N)c([Si](C)(C)C)c1 | > 100 µM (inactive) | 29.8 µM (inactive) | > 100 µM (inactive) | > 100 µM (inactive) | 87.9 µM (inactive) | > 100 µM (inactive) | > 100 µM (inactive) | – | – | 87.3 µM (inactive) | – | > 100 µM (inactive) | > 100 µM (inactive) | 54.8 µM (inactive) | > 100 µM (inactive) | 48.6 µM (inactive) | – | > 100 µM (inactive) | > 100 µM (inactive)
O=C1N[C@@H](COc2ccc(/C=N/c3ccc(CCc4ccc(/N=C/c5ccc(OC[C@@H]6COC(=O)N6)cc5)cc4)cc3)cc2)CO1 | > 100 µM (inactive) | > 100 µM (inactive) | – | > 100 µM (inactive) | > 100 µM (inactive) | > 100 µM (inactive) | > 100 µM (inactive) | > 100 µM (inactive) | > 100 µM (inactive) | > 100 µM (inactive) | > 100 µM (inactive) | > 100 µM (inactive) | > 100 µM (inactive) | > 100 µM (inactive) | > 100 µM (inactive) | – | > 100 µM (inactive) | > 100 µM (inactive) | > 100 µM (inactive)
C/C(=N\NC(N)=S)c1ccc(C)c(C)c1 | 53.5 µM (inactive) | 48.8 µM (inactive) | 19.9 µM (inactive) | 29.1 µM (inactive) | 51.2 µM (inactive) | 41.7 µM (inactive) | 33.3 µM (inactive) | – | – | 59.2 µM (inactive) | – | 3.31 µM (inactive) | 25.4 µM (inactive) | > 100 µM (inactive) | 23.9 µM (inactive) | 28.1 µM (inactive) | – | 66.7 µM (inactive) | 36.6 µM (inactive)
CC(C)N(C(=O)C12CC3CC(CC(C3)C1)C2)C(C)C | > 50 µM (inactive) | > 50 µM (inactive) | > 50 µM (inactive) | > 50 µM (inactive) | > 50 µM (inactive) | > 50 µM (inactive) | > 50 µM (inactive) | – | – | > 50 µM (inactive) | – | > 50 µM (inactive) | > 50 µM (inactive) | > 50 µM (inactive) | > 50 µM (inactive) | > 50 µM (inactive) | – | > 50 µM (inactive) | > 50 µM (inactive)
COC12C=CC(CC1)c1c(O)ccc(O)c12 (stereo not drawn) | > 49.7 µM (inactive) | > 90.8 µM (inactive) | > 100 µM (inactive) | > 100 µM (inactive) | 39.1 µM (inactive) | 57.7 µM (inactive) | > 51.5 µM (inactive) | – | – | 39.3 µM (inactive) | – | > 66.2 µM (inactive) | > 100 µM (inactive) | 40.7 µM (inactive) | 19.6 µM (inactive) | 20.6 µM (inactive) | – | > 100 µM (inactive) | 22.6 µM (inactive)
CN(Cc1ccccc1)C1(N(C)Cc2ccccc2)CC1 | > 100 µM (inactive) | > 100 µM (inactive) | > 100 µM (inactive) | > 100 µM (inactive) | > 100 µM (inactive) | > 100 µM (inactive) | > 100 µM (inactive) | – | – | > 100 µM (inactive) | – | > 100 µM (inactive) | > 100 µM (inactive) | > 100 µM (inactive) | > 100 µM (inactive) | > 100 µM (inactive) | – | > 100 µM (inactive) | > 100 µM (inactive)
